What all share (format): cell-based
Series [1] in a line: MTT assay (cytotoxicity), DU145 cells. The settings on record: human, DU145 cells. As for the experimental part:
(§1) MTT assays: LNCaP, 22Rv1, Du145, H1975, A549, MB231 and MCF-7 cells are maintained in RPMI 1640 supplemented with 10% FBS. Cells were seeded at a density of 6-7×10^3 cells per well in 96-well plates. After overnight incubation, cells in fresh RPMI 1640 supplemented with 10% FBS were exposed to DMSO vehicle control or test compounds at designated concentrations for 72 h. Viable cells were evaluated by MTT assays. Experiments were performed in triplicate and repeated at least twice.
In general terms: Formazan colour is commonly taken as a measure of viable cells.

The nature of series [2]: MTT assay (cytotoxicity), LNCaP cells. The settings on record: human, LNCaP cells, 72 h. As for the experimental part: as §1
The nature of series [3]: MTT assay (cytotoxicity), 22Rv1 cells. The settings on record: human, 22Rv1 cells, 72 h. Here is the method: as §1

This note sets out measurements from US20170273922A1, “UREA AND BIS-UREA BASED COMPOUNDS AND ANALOGUES THEREOF USEFUL IN THE TREATMENT OF ANDROGEN RECEPTOR MEDIATED DISEASES OR DISORDERS” (THE ROYAL INSTITUTION FOR THE ADVACEMENT OF LEARNING/MCGILL …, priority 2014, published 2017).

The IC50 is the concentration that inhibits the measured activity by half.

Turning to `N#Cc1ccc(NC(=O)N/C=C/c2cccs2)cc1` [Compound 424], the concentration for half-maximal inhibition (IC50) at 72 h in series [1] (Table 2.4) worked out at 14.4 µM; in series [2] (Table 2.4), 5 µM; in series [3] (Table 2.4), 16.7 µM.
In the case of `O=C(N/C=C/c1ccc(C(F)(F)F)cc1)Nc1ccc2c(c1)OCO2` [Compound 432], the IC50 at 72 h in series [1] (Table 2.3), in series [2] (Table 2.3) and in series [3] (Table 2.3) was > 20 µM each time.
With `O=C(N/C=C/c1cc(C(F)(F)F)cc(C(F)(F)F)c1)Nc1ccn(C(=O)N/C=C/c2cc(C(F)(F)F)cc(C(F)(F)F)c2)c(=O)n1` [Compound 532], the results for the IC50 at 72 h in series [1] (Table 5.1), in series [2] (Table 5.1) and in series [3] (Table 5.1) were 5.1 µM, 2.4 µM and 4.3 µM, respectively.
Consider `O=C(N/C=C/c1cccc(C(F)(F)F)c1)NCCc1cccc(C(F)(F)F)c1` [Compound 459], for which the IC50 at 72 h in series [1] (Table 2.4) is > 10 µM; in series [2] (Table 2.4), 7.1 µM.
Turning to `O=C(N/C=C/c1cccc(C(F)(F)F)c1)Nc1ccccc1NC(=O)N/C=C/c1cccc(C(F)(F)F)c1` [Compound 451], the IC50 at 72 h in series [1] (Table 5.1) stood at 5.4 µM; in series [2] (Table 5.1), 2.4 µM; in series [3] (Table 5.1), 4.4 µM.
On to `O=C(Nc1cccc(C(F)(F)F)c1)Nc1ccncn1` [Compound 574], for which the figures for the IC50 at 72 h in series [1] (Table 4.1), in series [2] (Table 4.1) and in series [3] (Table 4.1) were > 20 µM, 13.8 µM and > 20 µM, respectively.
On to `CC/C=C(\C)CN(C(=O)N/C=C/c1cc(C(F)(F)F)cc(C(F)(F)F)c1)c1ccc(C#N)nc1` [Compound 534], for which the half-maximal inhibitory concentration (IC50) at 72 h in series [1] (Table 2.5) is 7.1 µM; in series [2] (Table 2.5) it was 6 µM; in series [3] (Table 2.5), 7.3 µM.
Consider `O=C(N/C=C/c1ccc2c(c1)OCO2)Nc1ccc([N+](=O)[O-])c(C(F)(F)F)c1` [Compound 444], for which the values for the IC50 at 72 h in series [1] (Table 2.4), in series [2] (Table 2.4) and in series [3] (Table 2.4) were 14 µM, 14.6 µM and 17.5 µM, respectively.
Turning to `O=C(N/C=C/c1cccc(C(F)(F)F)c1)Nc1cccc(NC(=O)N/C=C/c2cccc(C(F)(F)F)c2)c1` [Compound 440], the IC50 at 72 h in series [1] (Table 5.1) is 5.1 µM; in series [2] (Table 5.1), 1.7 µM; in series [3] (Table 5.1), 4.9 µM.
`O=C(N/C=C/c1cccs1)Nc1cccc(C(F)(F)F)c1` [Compound 420]: the IC50 at 72 h in series [1] (Table 2.4) is 12.3 µM; in series [2] (Table 2.4) it was 6.4 µM; in series [3] (Table 2.4), 12.3 µM.
`O=C(Nc1cccc(C(F)(F)F)c1)Nc1ccc2[nH]ccc2c1` [Compound 522]: the IC50 at 72 h in series [1] (Table 4.1), in series [2] (Table 4.1) and in series [3] (Table 4.1) was > 10 µM each time.
Take `O=C(N/C=C/c1cc(C(F)(F)F)cc(C(F)(F)F)c1)Nc1cnc2ccccc2c1` [Compound 523]: the IC50 at 72 h in series [1] (Table 2.3) amounted to 10 µM; in series [2] (Table 2.3), 8 µM; in series [3] (Table 2.3), 8.4 µM.
Turning to `CC(C)(C)OC(=O)n1cc(/C=C/NC(=O)Nc2ccc(NC(=O)N/C=C/c3cn(C(=O)OC(C)(C)C)c4ccccc34)cc2)c2ccccc21` [Compound 452], the figures for the concentration for half-maximal inhibition (IC50) at 72 h in series [1] (Table 5.1), in series [2] (Table 5.1) and in series [3] (Table 5.1) were 3.4 µM, > 20 µM and > 20 µM, respectively.
For `O=C(N/C=C/c1ccco1)Nc1ccc([N+](=O)[O-])c(C(F)(F)F)c1` [Compound 434], the figures for the IC50 at 72 h in series [1] (Table 2.4), in series [2] (Table 2.4) and in series [3] (Table 2.4) were 7.8 µM, 2 µM and 5.6 µM, respectively.
The corresponding values for `O=C(N/C=C/c1ccc([N+](=O)[O-])c(C(F)(F)F)c1)NCc1cccc(C(F)(F)F)c1` [Compound 461] are 3.4 µM, 2.4 µM and 3.4 µM.
With `O=C(N/C=C/c1cccc(C(F)(F)F)c1)Nc1cnc2ccccc2c1` [Compound 525], the IC50 at 72 h in series [1] (Table 2.3), in series [2] (Table 2.3) and in series [3] (Table 2.3) was > 10 µM each time.
Consider `CC(C)(C)OC(=O)n1cc(/C=C/NC(=O)Nc2ccc([N+](=O)[O-])c(C(F)(F)F)c2)c2ccccc21` [Compound 450], for which the IC50 at 72 h in series [1] (Table 2.4) amounted to 4.9 µM; in series [2] (Table 2.4) it was 1.8 µM; in series [3] (Table 2.4), 4 µM.
